The source of these data is US6569902B2, “Nitrone inhibition of cancer development” (Oklahoma Medical Research Foundation, priority 2000, dated 2003).

Each structure is given as a SMILES string. Like-named read-outs stand apart in the source and are kept apart here.

The subject of assay [1] is rat liver microsome peroxidation. As to conditions: read-out: IC50, inhibition of rat liver microsome peroxidation; cited from earlier work. In general terms: Microsomes from liver hold many membrane-bound enzymes, among them those of drug oxidation.
Assay [2] has as its system livers of male Wistar rats fed the CDAA diet. Nature of the assay: Example 2: oxidative hepatocyte injuries (8-OHdG, TBARS). In kind it is in vivo, rat. The conditions noted are these: for nuclear DNA 8-OHdG content increased by CDAA diet feeding: all doses, CDAA diet 16 weeks. From the text:
(§1) Animal experiment. After acclimation, rats were divided equally into 22 groups consisting of 5 animals each. Animals in group 1 received the CDAA diet alone. […] Groups 5-7, 8-10, 11-13 and 14-16 received the CDAA diet containing the low, middle, and high doses of 4-OHPBN, 3-OHPBN, 2-OHPBN and 2-SPBN, respectively. Group 17 received the CSAA diet alone. […] All animals were sacrificed by exsanguination under light ether anesthesia 16 weeks after commencement, and the livers excised. Slices 5-mm-thick were taken from the left lateral, median and right lateral lobes of the livers, fixed in 10% neutrally-buffered formalin for 24 hours and then embedded in paraffin. Five serial 4-μm-thick sections were prepared from each fixed liver slice and used for histological and immunohistochemical assessment as described below. The remaining portions of the livers were immediately frozen under liquid nitrogen and stored at −80° C. until use.
Determination of oxidative hepatocyte injuries. Levels of oxidative damage to the hepatocytes were determined on frozen liver samples. Oxidative damage to nuclear DNA was assessed as previously described, using the amount of 8-hydroxydeoxyguanosine (8-OHdG) to 10^6 deoxyguanosine (dG) ratio as a parameter (Nakae et al. 1995). Oxidative injury to extra-nuclear components was assessed as described elsewhere, by determining picomole malondialdehyde equivalent (MDA eq.) levels of 2-thiobarbituric acid-reacting substances (TBARS) per milligram protein (Nakae et al. 1990).
(§2) Statistics. Inter-group differences in quantitative data for multiple groups were recognized to be significant, when p values smaller than 0.05 were obtained by the Dunnett multiple comparison test employed after one-way analysis of variance to determine the variation among the group means followed by the Bartlett's test to determine the homogeniety of variance.

Assay [3] has as its system hepatocytes of male Wistar rats fed the CDAA diet. The assay is described as follows: Example 2: apoptotic and proliferative indices in GST-P-positive lesions and surrounding tissue. In kind it is in vivo, rat. The conditions noted are these: high dose 0.090%.
Text: as §1
(§3) Histological and immunohistochemical assessments. Histological assessment was performed using sections routinely stained with hematoxylin/eosin and Masson's trichrome procedures. Gradation of fibrosis was quantitatively evaluated in groups 1, 4, 7, 10, 13, 16 and 17 by calculating the percent area occupied by collagen fiber stained blue by Masson's trichrome method using an IPAP image analyzing system (Sumika Technoservice Corp., City of Osaka, Osaka, Japan). GST-P-positive lesions were visualized immunohistochemically. Lesions consisting of more than 6 cells were quantified using the IPAP system as described elsewhere (Kishida et al. 2000). The amount of apoptosis and the cellular proliferative activity were determined in groups 1, 4, 7, 10, 13, 16 and 17, using the double staining techniques by combination of the GST-P immunohistochemistry as above with the in situ terminal deoxynucleotidyl transferase-mediated dUTP-biotin nick end-labeling method (Gold et al. 1994) and the enhanced polymer one-step staining method for proliferating cell nuclear antigen (Tsutsumi et al. 1995), respectively. Numbers of apoptotic and proliferating hepatocytes among the 1000-5000 hepatocytes in GST-P-positive lesions and 5000 hepatocytes in surrounding tissue were counted under light microscopy to obtain percentages that are hereafter referred as apoptotic and proliferative indices, respectively.
as §2

Assay [4] relates to livers of male Wistar rats fed the CDAA diet. The assay is described as follows: Example 2: histological liver injury (fibrosis, fatty liver). The assay is classed as in vivo, rat. As to conditions: high dose 0.090%, CDAA diet 16 weeks.
Text: as §1, §3, §2

The test system of assay [5] is GST-P-positive lesions in livers of male Wistar rats fed the CDAA diet. Nature of the assay: Example 2: numbers and sizes of GST-P-positive liver lesions, CDAA diet for 16 weeks. The conditions noted are these: for effect on the number or sizes of the GST-P-positive lesions: CDAA diet. In kind it is in vivo, rat. The protocol:
Animals. A total of 110 male Wistar rats were obtained at 5 weeks of age from Charles River Japan, Inc., Atsugi, Kanagawa, Japan. Experimentation began after a 1-week acclimation on a basal diet (CE-2 diet, Clea Japan, Meguro, Tokyo, Japan). Rats were housed 5 each in plastic cages with white flake bedding (Kansai Animal Corp., City of Kyoto, Kyoto, Japan) in a standard atmosphere (temperature, 25±3° C.; relative humidity, 55±8%; ventilation, 10-15/hour; and a 12-hour dark/light cycle). Free access to food and tap water was allowed throughout the acclimation and experimental periods.
Diets and chemicals. The CDAA diet and its control, a choline-supplemented, L-amino acid-defined (CSAA) diet (Nakae et al. 1992; and Nakae et al. 1990) were obtained from Dyets, Inc., Bethlehem, Pa. […] 2-Sulfoxy-PBN (2-SPBN) was purchased from Aldrich Chemical Co. (Milwaukee, Wis.).
as §1, §3, §2

For the next assay, the system named is rats fed the CDAA diet. The conditions noted are these: cited from earlier work.

One may read the IC50 as the midpoint of a concentration-inhibition curve. Turning to `Cc1cc(C(C)(C)C)c(O)c(C(C)(C)C)c1` [BHT], the IC50 in assay [1] is 6 µM.
As for `CC(C)(C)[N+]([O-])=Cc1ccc(O)cc1` [4-OHPBN, 4-hydroxyphenyl N-tert-butylnitrone], the “nuclear DNA 8-OHdG content increased by CDAA diet feeding” value (“nuclear DNA 8-OHdG content increased” for short) in assay [2] is recorded as “significantly inhibited”. Besides, in assay [2] (all three doses), the “TBARS level enhanced by CDAA feeding” value is on record as “significantly exerted an effect”. Also, in assay [3], the “apoptotic index in the surrounding tissue, % of the group 1 value” is recorded as “about 40%”; the “proliferative index in the lesions, % of the group 1 value” was “approximately 31%”; the “proliferative index in the surrounding tissue, % of the group 1 value” is listed as “about 49%”. Also, the “grade of fibrosis versus group 1” value in assay [4] is reported as “significantly lower”. For the same compound, the “sizes of GST-P-positive lesions, % of the group 1 value” in assay [5] (high dose 0.090% in CDAA diet) was 18%. Besides, in assay [5] (low dose 0.009% in CDAA diet), the “sizes of GST-P-positive lesions, % of the group 1 value” amounted to 24%. The “sizes of GST-P-positive lesions, % of the group 1 value” in assay [5] (middle dose 0.045% in CDAA diet) was determined as 19%.
Take `CC(=O)Oc1ccccc1C(=O)O` [Acetylsalicylic acid]: the “effect on nodule size, nodule number and 8-OHdG content” value with rats fed the CDAA diet (not nearly as potent as PBN) was “some effect”.
In the case of `Cc1c(C)c2c(c(C)c1O)CC[C@@](C)(CCC[C@H](C)CCC[C@H](C)CCCC(C)C)O2` [Alpha tocopherol], the “effect on any of the parameters” value in the assay with rats fed the CDAA diet (rat, in vivo) is given as “very little effect”.
Regarding `c1ccc(Nc2ccc(Nc3ccccc3)cc2)cc1` [N,N′-diphenyl-p-phenylenediamine], the “effect on sizes and numbers of GST-P-positive lesions” value in the assay with rats fed the CDAA diet (livers of rats fed the CDAA diet (Nakae et al. 1994)) is on record as “reduces the sizes of GST-P-positive lesions without affecting their numbers”.
For the compound `CC(Cc1ccc(O)c(O)c1)C(C)Cc1ccc(O)c(O)c1` (stereo not shown) [NGDA, nordihydroguaiaric acid], in the assay on rats fed the CDAA diet (0.1% level), the “lowering of nodule size” value is listed as 39%.
Consider `CC(C)(C)[N+]([O-])=Cc1ccccc1S(=O)(=O)O` [2-SPBN, 2-sulfoxyphenyl N-tert-butylnitone], for which the “nuclear DNA 8-OHdG content increased” value in assay [2] is given as “Neither 2-OHPBN nor 2-SPBN decreased”. Moreover, the “TBARS level enhanced by CDAA feeding” value in assay [2] (all three doses) is “Neither 2-OHPBN nor 2-SPBN affected”. Further, in assay [3], the “effect on apoptotic indices” value was “Neither 2-OHPBN nor 2-SPBN altered”. In addition, the “grade of fibrosis versus group 1” value in assay [4] is “no affect”. The “effect on the number or sizes of the GST-P-positive lesions” value in assay [5] was “Neither 2-OHPBN nor 2-SPBN had any affect”.
Take `CCCCCCCCCCCCCCCCCCOC1=C(O)[C@@H]([C@@H](O)CO)OC1=O` [2-O-octadecylascorbic acid]: in the assay with rats fed the CDAA diet (chronic feeding in the CDAA diet (Mizumoto et al. 1994)), the “inhibition of rat hepatocarcinogenesis” value is “inhibits rat hepatocarcinogenesis by chronic feeding in the CDAA diet greater than its hydrophilic parent, L-ascorbic acid”.
For the compound `CC(C)(C)[N+]([O-])=Cc1ccccc1O` [2-OHPBN, 2-hydroxyphenyl N-tert-butylnitone], in assay [2], the “nuclear DNA 8-OHdG content increased” value is recorded as “Neither 2-OHPBN nor 2-SPBN decreased”. Further, in assay [2] (all three doses), the “TBARS level enhanced by CDAA feeding” value is reported as “Neither 2-OHPBN nor 2-SPBN affected”. Besides, the “effect on apoptotic indices” value in assay [3] is on record as “Neither 2-OHPBN nor 2-SPBN altered”. Also, the “grade of fibrosis versus group 1” value in assay [4] was “no affect”. In assay [5], the “effect on the number or sizes of the GST-P-positive lesions” value is “Neither 2-OHPBN nor 2-SPBN had any affect”.
Turning to `O=C(CBr)c1ccc(Br)cc1` [BPB, p-bromophenocybromide], the “activity in suppressing the size of the nodules” value in the assay on rats fed the CDAA diet (rat, in vivo) was “little activity”.
On to `CC(C)(C)[N+]([O-])=Cc1cccc(O)c1` [3-OHPBN, 3-hydroxyphenyl N-tert-butylnitrone], for which the “nuclear DNA 8-OHdG content increased” value in assay [2] is reported as “significantly inhibited”. Besides, the “TBARS level enhanced by CDAA feeding” value in assay [2] (high dose 0.090% only) is reported as “significantly inhibited”. In assay [3], the “apoptotic index in the surrounding tissue, % of the group 1 value” is given as “about 40%”. In addition, in assay [4], the “grade of fibrosis versus group 1” value is “significantly lower”. In addition, the “sizes of GST-P-positive lesions, % of the group 1 value” in assay [5] (high dose 0.090% in CDAA diet) is recorded as 9%.
In the case of `Cc1c(C)c2c(c(C)c1O)CCC(C)(C(=O)O)O2` (stereo not shown) [Trolox], the “effect on any of the parameters” value in the assay on rats fed the CDAA diet (rat, in vivo) is “very little effect”. In assay [1], the IC50 is 40 µM.
For `CCCCCCCCCCCCCCCCCCOC1=C(O)C([C@@H](O)CO)OC1=O` (stereo partly shown) [CV3611], the “lowering of nodule size” value in the assay on rats fed the CDAA diet (0.05% level) is reported as 44%.
